Measurements: patent US5622989A, “Amino-benzofuryl-and thienyl-derivatives” (Bayer Aktiengesellschaft, priority 1994, dated 1997)

System: human PMN
Experiment: Inhibition of FMLP-stimulated production of superoxide radical anions
Format: cell-based
Settings: Neutrophil, neutrophils stimulated with 4×10^-8 M FMLP; for inhibition at 10 µM: 10 μM compound
Protocol: 1. Preparation of human PMN
Blood was taken from healthy subjects by venous puncture and neutrophils were purified by dextran sedimentation and resuspended in the buffered medium.
2. Inhibition of FMLP-stimulated production of superoxide racidal anions.
Neutrophils (2.5×10^5 ml^-1) were mixed with cytochrome C (1.2 mg/ml) in the wells of a microtitre plate. Compounds according to the invention were added in dimethyl sulphoxide (DMSO). Compound concentration ranged from 2.5 nM to 10 μM, the DMSO concentration was 0.1% v/v in all wells. After addition of cytochalasin b (5 μg×ml^-1) the plate was incubated for 5 min at 37° C. Neutrophils were then stimulated by addition of 4×10^-8 M FMLP and superoxide generation measured as superoxide dismutase inhibitable reduction of cytochrome C by monitoring the OD550 in a Thermomax microtitre plate spectrophotometer. Initial rates were calculated using a Softmax kinetic calculation programme. Blank wells contained 200 units of superoxide dismutase.
The inhibition of superoxide production was calculated as follows: [formula] Rx=Rate of the well containing the compound according to the invention. Ro=Rate in the control well.
Rb=Rate in the superoxide dismutase containing blank well.

IC50	SMILES	inhibition at 10 µM
600 nM	COc1cccc(C(=O)c2oc3cc(NC(C)=O)ccc3c2CCC(=O)O)c1 [Example 24]	68%
420 nM	CSc1ccc(C(=O)c2oc3cc(NC(C)=O)ccc3c2CCC(=O)O)cc1 [Example 21]	90%
